Patent US20260092071A1, “COMPOUNDS AND COMPOSITIONS AS SMARCA2/4 DEGRADERS AND USES THEREOF” (REGENTS OF THE UNIVERSITY OF MICHIGAN, priority 2022, published 2026)

Assays:
SMARCA4 = SMARCA4 (Homo sapiens, UniProt P51532); assay: HiBiT assay for protein degradation, Hela SMARCA4-HiBiT cells (A series); assay type: cell-based; design: fuse HiBiT to the carboxy terminus of SMARCA2 (Promega CS302365) or SMARCA4 (Promega CS3023225); host or cells: HeLa (CRISPR/Cas9 HiBiT knock-in); conditions: Hela SMARCA4-HiBiT cells, 24 hours treatment; for DC50: read-out: SMARC A4 Hela HiBit DC50; for Dmax: read-out: SMARC A4 Hela HiBit Dmax
Summary of the method: (§1)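 HeLa cells engineered by CRISPR/Cas9 to carry a HiBiT tag fused to the C-terminus of SMARCA4 (Promega CS3023225) were grown in DMEM supplemented with FBS and penicillin-streptomycin. After compound exposure, remaining SMARCA4 protein was quantified using the Nano-Glo® HiBiT Lytic Detection Assay (Promega N3050), and curves were fitted in GraphPad Prism.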

SMARCA2 = SMARCA2 (Homo sapiens, UniProt P51531); assay: HiBiT assay for protein degradation, Hela SMARCA2-HiBiT cells (A series); assay type: cell-based; design: Hela cells were genetically modified via CRISPR/Cas9 to fuse HiBiT to the carboxy terminus of SMARCA2; host or cells: HeLa (CRISPR/Cas9 HiBiT knock-in); conditions: Hela SMARCA2-HiBiT cells, 24 hours treatment; for DC50: read-out: SMARC A2 Hela HiBit DC50; for Dmax: read-out: SMARC A2 Hela HiBit Dmax (%);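 for SMARC A2 Hela HiBit Dmax (%): 24 h compound treatment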
Summary of the method: as §1, with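 “SMARCA2” for “SMARCA4”, “CS302365)” for “CS3023225)”, “treatment,” for “compound exposure,”, “with” for “using”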

SMARCA4, sequence (P51532 whole entry, the tested form may be a part): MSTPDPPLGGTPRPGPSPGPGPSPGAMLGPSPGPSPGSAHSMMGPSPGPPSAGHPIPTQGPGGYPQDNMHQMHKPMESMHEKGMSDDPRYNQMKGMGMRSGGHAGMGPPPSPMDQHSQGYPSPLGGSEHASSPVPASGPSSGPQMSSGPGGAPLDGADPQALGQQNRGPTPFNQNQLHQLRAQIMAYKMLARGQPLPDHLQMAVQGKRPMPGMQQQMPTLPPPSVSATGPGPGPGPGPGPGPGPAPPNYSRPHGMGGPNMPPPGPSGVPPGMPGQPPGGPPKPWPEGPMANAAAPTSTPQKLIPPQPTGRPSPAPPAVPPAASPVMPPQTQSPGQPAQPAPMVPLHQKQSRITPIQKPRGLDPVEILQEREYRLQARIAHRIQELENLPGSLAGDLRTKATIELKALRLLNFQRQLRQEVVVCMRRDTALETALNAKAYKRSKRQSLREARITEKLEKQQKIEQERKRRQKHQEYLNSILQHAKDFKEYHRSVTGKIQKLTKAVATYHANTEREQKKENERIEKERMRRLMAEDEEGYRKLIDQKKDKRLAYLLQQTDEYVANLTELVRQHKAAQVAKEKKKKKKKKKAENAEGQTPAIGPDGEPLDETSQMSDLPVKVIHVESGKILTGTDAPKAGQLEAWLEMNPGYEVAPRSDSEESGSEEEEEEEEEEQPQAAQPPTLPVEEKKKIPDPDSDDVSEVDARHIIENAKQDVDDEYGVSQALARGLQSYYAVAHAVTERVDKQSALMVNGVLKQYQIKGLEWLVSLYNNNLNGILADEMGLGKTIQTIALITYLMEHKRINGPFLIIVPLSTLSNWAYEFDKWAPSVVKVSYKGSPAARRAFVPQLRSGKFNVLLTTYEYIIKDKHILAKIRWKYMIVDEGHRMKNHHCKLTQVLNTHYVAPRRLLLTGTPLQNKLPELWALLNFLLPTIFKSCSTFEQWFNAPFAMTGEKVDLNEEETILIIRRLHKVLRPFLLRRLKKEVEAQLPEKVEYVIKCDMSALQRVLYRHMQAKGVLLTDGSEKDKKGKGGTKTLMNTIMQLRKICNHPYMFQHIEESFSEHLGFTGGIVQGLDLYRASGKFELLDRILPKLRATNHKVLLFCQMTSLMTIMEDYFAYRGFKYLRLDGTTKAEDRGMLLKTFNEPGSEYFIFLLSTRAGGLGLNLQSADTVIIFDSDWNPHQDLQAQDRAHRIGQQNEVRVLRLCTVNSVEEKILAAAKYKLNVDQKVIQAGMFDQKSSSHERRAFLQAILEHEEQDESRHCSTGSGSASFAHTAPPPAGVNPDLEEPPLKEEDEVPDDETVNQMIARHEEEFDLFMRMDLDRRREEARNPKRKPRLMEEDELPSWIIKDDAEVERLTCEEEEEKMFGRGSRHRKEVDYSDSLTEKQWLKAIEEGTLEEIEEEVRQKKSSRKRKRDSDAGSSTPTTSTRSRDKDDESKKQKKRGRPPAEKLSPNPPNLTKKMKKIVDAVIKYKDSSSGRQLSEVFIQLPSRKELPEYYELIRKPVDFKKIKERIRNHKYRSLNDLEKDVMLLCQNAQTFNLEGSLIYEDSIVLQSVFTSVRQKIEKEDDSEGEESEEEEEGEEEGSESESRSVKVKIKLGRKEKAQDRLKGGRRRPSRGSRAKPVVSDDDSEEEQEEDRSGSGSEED
SMARCA2, sequence (P51531 whole entry): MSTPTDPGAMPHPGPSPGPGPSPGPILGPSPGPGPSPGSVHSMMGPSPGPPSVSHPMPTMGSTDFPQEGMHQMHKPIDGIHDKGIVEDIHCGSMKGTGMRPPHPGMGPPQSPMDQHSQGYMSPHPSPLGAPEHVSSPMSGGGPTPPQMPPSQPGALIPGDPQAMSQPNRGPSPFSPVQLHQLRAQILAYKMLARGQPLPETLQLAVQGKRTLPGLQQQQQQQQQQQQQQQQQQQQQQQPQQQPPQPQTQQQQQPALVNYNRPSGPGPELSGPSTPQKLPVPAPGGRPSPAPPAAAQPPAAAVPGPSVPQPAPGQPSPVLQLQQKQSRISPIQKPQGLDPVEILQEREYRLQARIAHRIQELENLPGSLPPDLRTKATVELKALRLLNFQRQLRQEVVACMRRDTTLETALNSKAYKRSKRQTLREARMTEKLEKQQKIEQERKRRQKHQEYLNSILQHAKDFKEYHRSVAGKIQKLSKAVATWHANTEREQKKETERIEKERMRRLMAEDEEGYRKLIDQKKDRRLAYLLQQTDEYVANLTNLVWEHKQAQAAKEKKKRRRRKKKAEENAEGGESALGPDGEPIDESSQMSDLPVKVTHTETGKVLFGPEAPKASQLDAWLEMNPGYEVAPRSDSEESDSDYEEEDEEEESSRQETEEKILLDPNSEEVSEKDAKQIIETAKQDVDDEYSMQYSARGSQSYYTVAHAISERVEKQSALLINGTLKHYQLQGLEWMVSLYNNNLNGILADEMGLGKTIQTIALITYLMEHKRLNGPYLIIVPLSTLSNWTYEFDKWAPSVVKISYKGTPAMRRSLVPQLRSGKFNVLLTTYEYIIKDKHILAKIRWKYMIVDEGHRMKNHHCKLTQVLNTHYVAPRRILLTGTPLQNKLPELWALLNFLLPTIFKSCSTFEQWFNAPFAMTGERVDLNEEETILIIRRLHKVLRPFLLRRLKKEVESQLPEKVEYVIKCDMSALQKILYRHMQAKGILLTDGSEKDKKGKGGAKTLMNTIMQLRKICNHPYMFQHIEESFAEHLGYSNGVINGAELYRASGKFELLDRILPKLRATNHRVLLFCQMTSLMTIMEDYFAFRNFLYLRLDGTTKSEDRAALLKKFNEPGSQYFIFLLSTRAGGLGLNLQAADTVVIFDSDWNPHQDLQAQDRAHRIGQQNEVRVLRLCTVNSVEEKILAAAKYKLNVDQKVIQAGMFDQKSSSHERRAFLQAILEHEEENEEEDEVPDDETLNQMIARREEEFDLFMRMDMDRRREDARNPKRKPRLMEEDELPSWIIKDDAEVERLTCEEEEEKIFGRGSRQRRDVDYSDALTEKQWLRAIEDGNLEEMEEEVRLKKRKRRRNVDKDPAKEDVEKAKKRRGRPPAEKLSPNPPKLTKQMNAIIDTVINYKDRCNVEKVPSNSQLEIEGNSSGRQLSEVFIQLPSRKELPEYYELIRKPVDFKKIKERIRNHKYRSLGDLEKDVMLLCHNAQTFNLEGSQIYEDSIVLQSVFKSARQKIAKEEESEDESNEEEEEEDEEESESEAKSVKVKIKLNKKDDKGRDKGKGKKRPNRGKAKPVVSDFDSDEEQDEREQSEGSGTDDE

SMILES	DC50 (SMARCA4) [nM]	Dmax (SMARCA4) [%]	DC50 (SMARCA2) [nM]	Dmax (SMARCA2) [%]
Cc1ncsc1-c1ccc([C@H](CN2CCC(C(F)F)CC2)NC(=O)[C@@H]2C[C@@H](O)CN2C(=O)[C@@H](n2cc([C@H]3CC[C@H](CN4CCC(c5ccc6c(c5)-n5c(nc(=O)c7c(Cl)cccc75)C65CCCCC5)CC4)CC3)nn2)C(C)(C)C)cc1 [Compound A84, (2S,4R)-1-((S)-2-(4-((1r,4S)-4-((4-(4′-chloro-5′-oxo-5′H-spiro[cyclohexane-1,7′-indolo[1,2-a]quinazolin]-10′-yl)piperidin-1-yl)methyl)cyclohexyl)-1H-1,2,3-triazol-1-yl)-3,3-dimethylbutanoyl)-N—((R)-2-(4-(difluoromethyl)piperidin-1-yl)-1-(4-(4-methylthiazol-5-yl)phenyl)ethyl)-4-hydroxypyrrolidine-2-carboxamide]	> 1000	< 50	10 to 100	> 90
Cc1ncsc1-c1ccc([C@H](CN2CCN(C)CC2)NC(=O)[C@@H]2C[C@@H](O)CN2C(=O)[C@@H](n2cc([C@H]3CC[C@H](CN4CCC(c5ccc6c(c5)-n5c(nc(=O)c7c(Cl)cccc75)C65CCCCC5)CC4)CC3)nn2)C(C)(C)C)cc1 [Compound A85, (2S,4R)-1-((S)-2-(4-((1r,4S)-4-((4-(4′-chloro-5′-oxo-5′H-spiro[cyclohexane-1,7′-indolo[1,2-a]quinazolin]-10′-yl)piperidin-1-yl)methyl)cyclohexyl)-1H-1,2,3-triazol-1-yl)-3,3-dimethylbutanoyl)-4-hydroxy-N—((R)-2-(4-methylpiperazin-1-yl)-1-(4-(4-methylthiazol-5-yl)phenyl)ethyl)pyrrolidine-2-carboxamide]	10 to 100	50 to 69	< 10	> 90
COCCOC[C@H](NC(=O)[C@@H]1C[C@@H](O)CN1C(=O)[C@@H](n1cc([C@H]2CC[C@H](CN3CCC(c4ccc5c(c4)-n4c(nc(=O)c6c(Cl)cccc64)C54CCCCC4)CC3)CC2)nn1)C(C)(C)C)c1ccc(-c2scnc2C)cc1 [Compound A86, (2S,4R)-1-((S)-2-(4-((1r,4S)-4-((4-(4′-chloro-5′-oxo-5′H-spiro[cyclohexane-1,7′-indolo[1,2-a]quinazolin]-10′-yl)piperidin-1-yl)methyl)cyclohexyl)-1H-1,2,3-triazol-1-yl)-3,3-dimethylbutanoyl)-4-hydroxy-N-(®-2-(2-methoxyethoxy)-1-(4-(4-methylthiazol-5-yl)phenyl)ethyl)pyrrolidine-2-carboxamide]	> 1000	50 to 69	< 10	> 90
COCCOCCOC[C@H](NC(=O)[C@@H]1C[C@@H](O)CN1C(=O)[C@@H](n1cc([C@H]2CC[C@H](CN3CCC(c4ccc5c(c4)-n4c(nc(=O)c6c(Cl)cccc64)C54CCCCC4)CC3)CC2)nn1)C(C)(C)C)c1ccc(-c2scnc2C)cc1 [Compound A87, (2S,4R)-1-((S)-2-(4-((1r,4S)-4-((4-(4′-chloro-5′-oxo-5′H-spiro[cyclohexane-1,7′-indolo[1,2-a]quinazolin]-10′-yl)piperidin-1-yl)methyl)cyclohexyl)-1H-1,2,3-triazol-1-yl)-3,3-dimethylbutanoyl)-4-hydroxy-N-(®-2-(2-(2-methoxyethoxy)ethoxy)-1-(4-(4-methylthiazol-5-yl)phenyl)ethyl)pyrrolidine-2-carboxamide]	> 1000	50 to 69	< 10	> 90
Cc1ncsc1-c1ccc([C@H](CN2CCOCC2)NC(=O)[C@@H]2C[C@@H](O)CN2C(=O)[C@@H](n2cc([C@H]3C[C@H](CN4CC5(CCC(c6ccc7c(c6)-n6c(nc(=O)c8c(Cl)cccc86)C76CCCCC6)CC5)C4)C3)nn2)C(C)(C)C)cc1 [Compound A88, (2S,4R)-1-((S)-2-(4-((1r,3S)-3-((7-(4′-chloro-5′-oxo-5′H-spiro[cyclohexane-1,7′-indolo[1,2-a]quinazolin]-10′-yl)-2-azaspiro[3.5]nonan-2-yl)methyl)cyclobutyl)-1H-1,2,3-triazol-1-yl)-3,3-dimethylbutanoyl)-4-hydroxy-N—((R)-1-(4-(4-methylthiazol-5-yl)phenyl)-2-morpholinoethyl)pyrrolidine-2-carboxamide]	10 to 100	70 to 90	10 to 100	> 90
Cc1ncsc1-c1ccc([C@H](C)NC(=O)[C@@H]2C[C@@H](O)CN2C(=O)[C@@H](n2cc([C@H]3CC[C@H](CN4CCC(c5ccc6c(c5)-n5c(nc(=O)c7c(Cl)cccc75)C6(C)C)CC4)CC3)nn2)C(C)(C)C)cc1 [Compound A89, (2S,4R)-1-((S)-2-(4-((1r,4S)-4-((4-(4-chloro-7,7-dimethyl-5-oxo-5,7-dihydroindolo[1,2-a]quinazolin-10-yl)piperidin-1-yl)methyl)cyclohexyl)-1H-1,2,3-triazol-1-yl)-3,3-dimethylbutanoyl)-4-hydroxy-N—((S)-1-(4-(4-methylthiazol-5-yl)phenyl)ethyl)pyrrolidine-2-carboxamide]	> 1000	50 to 69	< 10	> 90
Cc1ncsc1-c1ccc([C@H](CN2CCOCC2)NC(=O)[C@@H]2C[C@@H](O)CN2C(=O)[C@@H](n2cc([C@H]3CC[C@H](CN4CCC(c5ccc6c(c5)-n5c(nc(=O)c7c(Cl)cccc75)C6(C)C)CC4)CC3)nn2)C(C)(C)C)cc1 [Compound A90]	> 1000	< 50	< 10	> 90
COCCOC[C@H](NC(=O)[C@@H]1C[C@@H](O)CN1C(=O)[C@@H](n1cc([C@H]2CC[C@H](CN3CCC(c4ccc5c(c4)-n4c(nc(=O)c6c(Cl)cccc64)C5(C)C)CC3)CC2)nn1)C(C)(C)C)c1ccc(-c2scnc2C)cc1 [Compound A91, (2S,4R)-1-((S)-2-(4-((1r,4S)-4-((4-(4-chloro-7,7-dimethyl-5-oxo-5,7-dihydroindolo[1,2-a]quinazolin-10-yl)piperidin-1-yl)methyl)cyclohexyl)-1H-1,2,3-triazol-1-yl)-3,3-dimethylbutanoyl)-4-hydroxy-N-(®-2-(2-methoxyethoxy)-1-(4-(4-methylthiazol-5-yl)phenyl)ethyl)pyrrolidine-2-carboxamide]	> 1000	< 50	< 10	> 90
COCCOCCOC[C@H](NC(=O)[C@@H]1C[C@@H](O)CN1C(=O)[C@@H](n1cc([C@H]2CC[C@H](CN3CCC(c4ccc5c(c4)-n4c(nc(=O)c6c(Cl)cccc64)C5(C)C)CC3)CC2)nn1)C(C)(C)C)c1ccc(-c2scnc2C)cc1 [Compound A92]	> 1000	< 50	< 10	70 to 90
Cc1ncsc1-c1ccc([C@H](CN2CC(C)(F)C2)NC(=O)[C@@H]2C[C@@H](O)CN2C(=O)[C@@H](n2cc([C@H]3CC[C@H](CN4CCC(c5ccc6c(c5)-n5c(nc(=O)c7c(Cl)cccc75)C6(C)C)CC4)CC3)nn2)C(C)(C)C)cc1 [Compound A93, (2S,4R)-1-((S)-2-(4-((1r,4S)-4-((4-(4-chloro-7,7-dimethyl-5-oxo-5,7-dihydroindolo[1,2-a]quinazolin-10-yl)piperidin-1-yl)methyl)cyclohexyl)-1H-1,2,3-triazol-1-yl)-3,3-dimethylbutanoyl)-N—((R)-2-(3-fluoro-3-methylazetidin-1-yl)-1-(4-(4-methylthiazol-5-yl)phenyl)ethyl)-4-hydroxypyrrolidine-2-carboxamide]	> 1000	< 50	< 10	> 90
Cc1ncsc1-c1ccc([C@H](CN2CCC(F)(F)CC2)NC(=O)[C@@H]2C[C@@H](O)CN2C(=O)[C@@H](n2cc([C@H]3CC[C@H](CN4CCC(c5ccc6c(c5)-n5c(nc(=O)c7c(Cl)cccc75)C6(C)C)CC4)CC3)nn2)C(C)(C)C)cc1 [Compound A94, (2S,4R)-1-((S)-2-(4-((1r,4S)-4-((4-(4-chloro-7,7-dimethyl-5-oxo-5,7-dihydroindolo[1,2-a]quinazolin-10-yl)piperidin-1-yl)methyl)cyclohexyl)-1H-1,2,3-triazol-1-yl)-3,3-dimethylbutanoyl)-N—((R)-2-(4,4-difluoropiperidin-1-yl)-1-(4-(4-methylthiazol-5-yl)phenyl)ethyl)-4-hydroxypyrrolidine-2-carboxamide]	> 1000	< 50	< 10	> 90
